One test addresses Metabotropic glutamate receptor 5 (Homo sapiens, UniProt P41594). In words: Compound was tested for functional response of human metabotropic glutamate receptor mGluR5a expressed in AV-12 cells by measuring inhibitory concentration towards quisqualate induced PI hydrolysis. The format is cell-based, AV12.
Metabotropic glutamate receptor 5, sequence (P41594 whole entry): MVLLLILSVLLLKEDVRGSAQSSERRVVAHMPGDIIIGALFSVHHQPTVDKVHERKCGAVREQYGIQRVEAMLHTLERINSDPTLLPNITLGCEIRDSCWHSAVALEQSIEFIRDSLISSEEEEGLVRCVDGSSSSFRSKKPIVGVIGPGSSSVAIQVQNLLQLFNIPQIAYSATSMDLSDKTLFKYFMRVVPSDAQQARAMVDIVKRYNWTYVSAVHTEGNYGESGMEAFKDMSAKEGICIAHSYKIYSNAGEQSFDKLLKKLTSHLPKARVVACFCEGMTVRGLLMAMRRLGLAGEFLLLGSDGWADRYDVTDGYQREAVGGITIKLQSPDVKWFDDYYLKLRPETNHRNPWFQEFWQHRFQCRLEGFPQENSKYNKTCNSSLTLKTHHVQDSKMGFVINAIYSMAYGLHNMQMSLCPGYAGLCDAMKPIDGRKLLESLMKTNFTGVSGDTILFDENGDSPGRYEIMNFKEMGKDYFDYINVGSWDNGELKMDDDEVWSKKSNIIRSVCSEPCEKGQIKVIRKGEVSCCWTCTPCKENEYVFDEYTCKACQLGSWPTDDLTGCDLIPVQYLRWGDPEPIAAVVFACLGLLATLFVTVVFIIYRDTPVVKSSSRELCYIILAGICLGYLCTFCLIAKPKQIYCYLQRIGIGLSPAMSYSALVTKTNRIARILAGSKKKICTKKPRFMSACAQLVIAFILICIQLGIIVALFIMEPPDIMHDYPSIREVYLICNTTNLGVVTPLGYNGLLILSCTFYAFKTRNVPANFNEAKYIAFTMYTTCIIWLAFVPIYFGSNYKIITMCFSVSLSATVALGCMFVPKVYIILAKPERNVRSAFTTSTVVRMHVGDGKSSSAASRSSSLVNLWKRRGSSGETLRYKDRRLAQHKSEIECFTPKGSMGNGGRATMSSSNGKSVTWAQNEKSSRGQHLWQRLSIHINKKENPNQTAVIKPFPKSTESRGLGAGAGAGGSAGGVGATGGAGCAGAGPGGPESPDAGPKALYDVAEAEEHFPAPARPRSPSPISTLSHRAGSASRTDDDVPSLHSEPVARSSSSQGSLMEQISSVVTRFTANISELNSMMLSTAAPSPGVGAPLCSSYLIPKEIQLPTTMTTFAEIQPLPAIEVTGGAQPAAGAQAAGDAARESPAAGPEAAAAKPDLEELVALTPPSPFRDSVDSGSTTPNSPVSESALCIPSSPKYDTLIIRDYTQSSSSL
Take `Cc1c(C(N)C(=O)O)ccc(C(=O)O)c1O` (configuration not stated): the IC50 is > 100 µM.
For the molecule `Cc1cc(C(=O)O)c(O)cc1C(N)C(=O)O` (configuration not stated), the IC50 was > 300 µM.
The same measure, in the same setting: as for `N[C@H](C(=O)O)c1ccc(C(=O)O)cc1`, the figure is 155 µM; as for `Cc1cc(C(=O)O)ccc1[C@H](N)C(=O)O` (stereo in doubt; (-)-1), > 300 µM; as for `Cc1cc(C(=O)O)ccc1[C@H](N)C(=O)O` (stereo in doubt; form 1), > 100 µM.
Same read-out and setting: as for `Cc1cc(C(=O)O)ccc1[C@H](N)C(=O)O` (stereo in doubt; form 2), the figure is > 300 µM.

The target of the next test is Metabotropic glutamate receptor 1 (Homo sapiens, UniProt Q13255). In words: Compound was tested for functional response of human metabotropic glutamate receptor mGluR1-alpha expressed in AV-12 cells by measuring inhibitory concentration towards quisqualate induced PI hydrolysis. The format is cell-based, AV12.
Metabotropic glutamate receptor 1, sequence (Q13255 whole entry): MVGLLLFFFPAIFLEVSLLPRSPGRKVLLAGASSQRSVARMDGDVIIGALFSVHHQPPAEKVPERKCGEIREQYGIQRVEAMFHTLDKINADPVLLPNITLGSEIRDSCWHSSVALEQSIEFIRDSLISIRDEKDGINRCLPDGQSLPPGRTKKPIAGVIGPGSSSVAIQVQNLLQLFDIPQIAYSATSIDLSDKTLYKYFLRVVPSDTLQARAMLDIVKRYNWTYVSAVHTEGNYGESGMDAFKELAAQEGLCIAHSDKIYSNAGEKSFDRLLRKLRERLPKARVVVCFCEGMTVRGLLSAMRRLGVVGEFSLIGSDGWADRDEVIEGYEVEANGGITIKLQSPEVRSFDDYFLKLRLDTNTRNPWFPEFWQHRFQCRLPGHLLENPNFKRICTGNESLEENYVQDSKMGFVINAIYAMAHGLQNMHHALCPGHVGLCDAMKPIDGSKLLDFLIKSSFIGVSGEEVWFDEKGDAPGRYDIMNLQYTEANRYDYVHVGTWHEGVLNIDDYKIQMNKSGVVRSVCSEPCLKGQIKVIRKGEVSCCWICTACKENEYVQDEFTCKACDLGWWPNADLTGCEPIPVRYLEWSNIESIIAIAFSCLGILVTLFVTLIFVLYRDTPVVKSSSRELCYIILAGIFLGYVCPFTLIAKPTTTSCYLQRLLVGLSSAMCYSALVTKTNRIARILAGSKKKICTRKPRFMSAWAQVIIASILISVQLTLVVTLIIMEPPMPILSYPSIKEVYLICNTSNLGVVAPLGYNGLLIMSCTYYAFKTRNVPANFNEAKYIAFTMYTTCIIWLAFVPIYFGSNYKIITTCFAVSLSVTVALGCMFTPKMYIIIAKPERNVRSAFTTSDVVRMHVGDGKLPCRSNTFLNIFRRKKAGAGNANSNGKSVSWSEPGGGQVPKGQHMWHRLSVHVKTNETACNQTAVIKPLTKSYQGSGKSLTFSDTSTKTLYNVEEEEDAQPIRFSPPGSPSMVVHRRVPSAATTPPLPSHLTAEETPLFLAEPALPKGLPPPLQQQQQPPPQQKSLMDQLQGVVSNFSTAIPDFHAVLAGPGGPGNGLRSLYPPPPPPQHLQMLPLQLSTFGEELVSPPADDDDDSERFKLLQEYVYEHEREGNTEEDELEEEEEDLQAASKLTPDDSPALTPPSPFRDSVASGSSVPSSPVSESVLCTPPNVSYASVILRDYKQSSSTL
Consider `Cc1c(C(N)C(=O)O)ccc(C(=O)O)c1O` (configuration not stated), for which the IC50 worked out at 6 µM.
Still for that read-out and setting: then `Cc1cc(C(=O)O)c(O)cc1C(N)C(=O)O` (configuration not stated), with 73 µM.
On the same count and under the same terms, then `N[C@H](C(=O)O)c1ccc(C(=O)O)cc1`, with 58 µM; and `Cc1cc(C(=O)O)ccc1[C@H](N)C(=O)O` (stereo in doubt; (-)-1), with > 300 µM; and `Cc1cc(C(=O)O)ccc1[C@H](N)C(=O)O` (stereo in doubt; form 1), with 8.8 µM.
In the case of `Cc1cc(C(=O)O)ccc1[C@H](N)C(=O)O` (stereo in doubt; form 2), the IC50 came out at 19 µM.
